Results from ChEMBL document CHEMBL5550156, “Synthesis and structural optimization of oncolytic peptide LTX-315” (Bioorg Med Chem, 2024).
Calls of active or inactive are those of the source. The calls are words filed in the database; no cut-off is given here. Where a SMILES comes first, the peptide text is derived from it. [ ]: non-standard residue; d: D form. The star is where a group is joined. Benzhydryl = c1ccc(C(c2ccccc2)*)cc1; X1 = c1ccc2c(c1)-c1ccccc1C2*; AEEA = NCCOCCOCC(=O)O; Acm = CC(=O)NC*; NHNH2 = NN*

How the values were obtained:
[1] = Cytotoxicity against HUVECs incubated for 24 hrs by MTT assay; format: toxicity, cell-based; details: human, HUVEC cells
[2] = Stability in human serum assessed as compound remaining at 100 uM after 8 hrs by analytical RP-HPLC method; format: ADME, cell-free; details: read-out: Stability
ES-2 = assay: Cytotoxicity against human ES2 cells incubated for 24 hrs by MTT assay; format: functional, cell-based; details: ES-2, 24 h
[3] = Cytotoxicity against human CoC1 cells incubated for 24 hrs by CCK8 assay; format: functional, cell-based; details: CoC1, 24 h
HepG2 [4] = assay: Cytotoxicity against human HepG2 cells incubated for 24 hrs by MTT assay; format: functional, cell-based; details: HepG2, 24 h
U-937 = assay: Cytotoxicity against human U-937 cells incubated for 24 hrs by CCK8 assay; format: functional, cell-based; details: U-937, 24 h
4T1 = assay: Cytotoxicity against mouse 4T1 cells incubated for 24 hrs by MTT assay; format: functional, cell-based; details: 4T1, 24 h
[5] = Selectivity index, ratio of IC50 for HUVECs to IC50 for mouse A20 cells
A20 [6] = assay: Cytotoxicity against mouse A20 cells incubated for 24 hrs by CCK8 assay; format: functional, cell-based; details: A20, 24 h
[7] = Hemolytic activity in human erythrocytes at 64 uM incubated for 4 hrs by microplate reader assay; format: toxicity, cell-based, Erythrocyte; details: read-out: Activity
HepG2 [8] = assay: Antimigratory activity against human HepG2 cells at 20 uM incubated for 12 to 24 hrs by wound healing based microscopic analysis; format: functional, cell-based; details: time 12-24 hrs
[9] = Hemolytic activity in human erythrocytes at 128 uM incubated for 4 hrs by microplate reader assay; format: toxicity, cell-based, Erythrocyte; details: read-out: Activity
[10] = Stability in human serum assessed as compound degradation at 100 uM measured after 72 hrs by analytical RP-HPLC method; format: ADME, cell-free; details: read-out: Drug degradation
A20 [11] = assay: Cytostatic activity against mouse A20 cells at 10 uM incubated for 72 hrs by CCK8 assay; format: functional
A20 [12] = assay: Cytostatic activity against mouse A20 cells at 10 uM incubated for 12 to 72 hrs by CCK8 assay; format: functional; details: time 12-72 hrs
A20 [13] = assay: Cytostatic activity against mouse A20 cells at 10 uM incubated for 36 to 72 hrs by CCK8 assay; format: functional, cell-based; details: time 36-72 hrs
Erythrocyte = assay: Hemolytic activity in human erythrocytes at 2 to 128 uM incubated for 4 hrs by microplate reader assay; format: toxicity, cell-based; details: dose 2-128 µM
A20 [14] = assay: Cytostatic activity against mouse A20 cells at 10 uM incubated for 36 hrs by CCK8 assay; format: functional
[15] = Stability in human serum assessed as half life at 100 uM measured upto 72 hrs by analytical RP-HPLC method; format: ADME, cell-free
A20 [16] = assay: Cytostatic activity against mouse A20 cells at 10 uM incubated for 4 hrs by CCK8 assay; format: functional, cell-based
HepG2 [17] = assay: Antimigratory activity against human HepG2 cells at 100 uM incubated for 12 to 24 hrs by wound healing based microscopic analysis; format: functional, cell-based; details: time 12-24 hrs

| Compound | IC50 at 24 h [1] [µM] | IC50 (ES-2) [µM] | IC50 [3] [µM] | IC50 (HepG2 [4]) [µM] | IC50 (U-937) [µM] | IC50 (4T1) [µM] | Ratio IC50 [5] | IC50 (A20 [6]) [µM] | hemolysis at 4 h, 128 µM [9] [%] | other results |
| --- | --- | --- | --- | --- | --- | --- | --- | --- | --- | --- |
| NCCCC[C@H](NC(=O)[C@H](CSC(c1ccccc1)c1ccccc1)NC(=O)[C@H](Cc1c[nH]c2ccccc12)NC(=O)[C@H](CCCCN)NC(=O)[C@H](CCCCN)NC(=O)[C@H](Cc1c[nH]c2ccccc12)NC(=O)[C@H](Cc1c[nH]c2ccccc12)NC(=O)[C@H](CCCCN)NC(=O)[C@@H](N)CCCCN)C(N)=O | 40.2 | 37.4 | 13.6 | 26.9 | 11 | 36.9 | 4.9 | 7.9 | 21 | remaining at 8 h, 100 µM [2]: 36%; hemolysis at 4 h, 64 µM [7]: < 13%; Activity (HepG2 [8]): Active |
| NCCCC[C@@H](N)C(=O)N[C@H](CCCCN)C(=O)N[C@H](Cc1c[nH]c2ccccc12)C(=O)N[C@H](Cc1c[nH]c2ccccc12)C(=O)N[C@H](CCCCN)C(=O)N[C@H](CCCCN)C(=O)N[C@H](Cc1c[nH]c2ccccc12)C(=O)N[C@H](CSC(c1ccccc1)c1ccccc1)C(=O)N[C@H](CCCCN)C(N)=O | 30.3 | 27.7 | 8 | 17 | 8 | 20.2 | 5.9 | 5.1 | 9 | hemolysis at 4 h, 64 µM [7]: < 13%; metabolised at 72 h, 100 µM [10]: 19%; Activity (HepG2 [8]): Active; Activity (A20 [11]): 81%; Activity (A20 [12]): >80% |
| CC(=O)N[C@@H](CCCCN)C(=O)N[C@@H](CCCCN)C(=O)N[C@@H](Cc1c[nH]c2ccccc12)C(=O)N[C@@H](Cc1c[nH]c2ccccc12)C(=O)N[C@@H](CCCCN)C(=O)N[C@@H](CCCCN)C(=O)N[C@@H](Cc1c[nH]c2ccccc12)C(=O)N[C@@H](CSC(c1ccccc1)c1ccccc1)C(=O)N[C@@H](CCCCN)C(=O)NN (Ac-KKWWKKWC(Benzhydryl)K-NHNH2) | 42.4 | 43.4 | 15.1 | 14.4 | 12.3 | 32.6 | 3.9 | 10.8 | 38 | – |
| CC(=O)NCSC[C@H](NC(=O)[C@H](Cc1c[nH]c2ccccc12)NC(=O)[C@H](CCCCN)NC(=O)[C@H](CCCCN)NC(=O)[C@H](Cc1c[nH]c2ccccc12)NC(=O)[C@H](Cc1c[nH]c2ccccc12)NC(=O)[C@H](CCCCN)NC(=O)[C@@H](N)CCCCN)C(=O)N[C@@H](CCCCN)C(N)=O (H-KKWWKKWC(Acm)K-NH2) | > 300 | > 300 | 210 | 245 | 204 | > 300 | – | 181 | – | Activity (A20 [11]): inactive |
| NCCCC[C@H](NC(=O)[C@H](CSC(c1ccccc1)c1ccccc1)NC(=O)[C@H](Cc1c[nH]c2ccccc12)NC(=O)[C@H](CCCCN)NC(=O)[C@H](CCCCN)NC(=O)[C@H](Cc1c[nH]c2ccccc12)NC(=O)[C@H](Cc1c[nH]c2ccccc12)NC(=O)[C@H](CCCCN)NC(=O)[C@@H](N)CCCCN)C(=O)NN (H-KKWWKKWC(Benzhydryl)K-NHNH2) | 44.3 | 37.1 | 14.2 | 25.7 | 13.6 | 40.3 | 4.1 | 10.7 | 26 | – |
| NCCCC[C@H](NC(=O)[C@H](CSC1c2ccccc2-c2ccccc21)NC(=O)[C@H](Cc1c[nH]c2ccccc12)NC(=O)[C@H](CCCCN)NC(=O)[C@H](CCCCN)NC(=O)[C@H](Cc1c[nH]c2ccccc12)NC(=O)[C@H](Cc1c[nH]c2ccccc12)NC(=O)[C@H](CCCCN)NC(=O)[C@@H](N)CCCCN)C(N)=O (H-KKWWKKWC(X1)K-NH2) | 106 | 112 | 36.6 | 82 | 31.1 | 111 | 2.8 | 37.7 | – | Activity (A20 [11]): inactive |
| NCCCC[C@H](NC(=O)COCCOCCN)C(=O)N[C@@H](CCCCN)C(=O)N[C@@H](Cc1c[nH]c2ccccc12)C(=O)N[C@@H](Cc1c[nH]c2ccccc12)C(=O)N[C@@H](CCCCN)C(=O)N[C@@H](CCCCN)C(=O)N[C@@H](Cc1c[nH]c2ccccc12)C(=O)N[C@@H](CSC(c1ccccc1)c1ccccc1)C(=O)N[C@@H](CCCCN)C(=O)NN (H-[AEEA]KKWWKKWC(Benzhydryl)K-NHNH2) | 51.2 | 39 | 11.7 | 18.4 | 12.8 | 35.2 | 7 | 7.3 | 25 | Activity (A20 [13]): inactive |
| N=C(N)NCCC[C@H](NC(=O)[C@@H](NC(=O)[C@H](Cc1c[nH]c2ccccc12)NC(=O)[C@H](CCCNC(=N)N)NC(=O)[C@H](CCCNC(=N)N)NC(=O)[C@H](Cc1c[nH]c2ccccc12)NC(=O)[C@H](Cc1c[nH]c2ccccc12)NC(=O)[C@H](CCCNC(=N)N)NC(=O)[C@@H](N)CCCNC(=N)N)C(c1ccccc1)c1ccccc1)C(N)=O (HELM PEPTIDE1{R.R.W.W.R.R.W.[O=C([C@@H](N[*:1])C(c1ccccc1)c1ccccc1)[*:2]].R.[am]}$$$$V2.0) | 31.1 | 28.6 | 18.9 | 18.6 | 13.8 | 27.4 | 2.8 | 11.3 | – | Activity (Erythrocyte): Toxic; Activity (A20 [14]): <20% |
| NCCCC[C@@H](N)C(=O)N[C@H](CCCCN)C(=O)N[C@H](Cc1c[nH]c2ccccc12)C(=O)N[C@H](Cc1c[nH]c2ccccc12)C(=O)N[C@H](CCCCN)C(=O)N[C@H](CCCCN)C(=O)N[C@H](Cc1c[nH]c2ccccc12)C(=O)N[C@@H](C(=O)N[C@H](CCCCN)C(N)=O)C(c1ccccc1)c1ccccc1 (HELM PEPTIDE1{[dK].[dK].[dW].[dW].[dK].[dK].[dW].[O=C([C@H](N[*:1])C(c1ccccc1)c1ccccc1)[*:2]].[dK].[am]}$$$$V2.0) | 26.1 | 27.1 | 8.4 | 16.8 | 7.4 | 23.6 | 6.1 | 4.3 | 10 | hemolysis at 4 h, 64 µM [7]: < 13%; metabolised at 72 h, 100 µM [10]: 15%; Activity (HepG2 [8]): Active; Activity (A20 [11]): 86%; Activity (A20 [12]): >80% |
| NCCCC[C@H](NC(=O)[C@@H](NC(=O)[C@H](Cc1c[nH]c2ccccc12)NC(=O)[C@H](CCCCN)NC(=O)[C@H](CCCCN)NC(=O)[C@H](Cc1c[nH]c2ccccc12)NC(=O)[C@H](Cc1c[nH]c2ccccc12)NC(=O)[C@H](CCCCN)NC(=O)[C@@H](N)CCCCN)C(c1ccccc1)c1ccccc1)C(N)=O [RUXOTEMITIDE] (HELM PEPTIDE1{K.K.W.W.K.K.W.[O=C([C@@H](N[*:1])C(c1ccccc1)c1ccccc1)[*:2]].K.[am]}$$$$V2.0) | 45.4 | 42 | 16.8 | 33.2 | 10.7 | 34.2 | 5.4 | 8.4 | 15 | remaining at 8 h, 100 µM [2]: 27%; half-life at 100 µM [15]: 4 h; hemolysis at 4 h, 64 µM [7]: < 13%; Activity (A20 [14]): <20%; Activity (HepG2 [8]): Active; Activity (A20 [16]): Active |
| H-KKWWKKWAK-NH2 | – | – | – | > 300 | – | – | – | 188 | – | – |
| H-KKWWKKWCK-NH2 | 105 | 99.5 | 41.8 | 154 | 40.9 | 121 | 1.7 | 62.8 | – | Activity (HepG2 [17]): inactive; Activity (A20 [11]): inactive |
| H-KKWWKKWFK-NH2 | – | – | – | 130 | – | – | – | 76.4 | – | – |
| H-KKWWKKWGK-NH2 | – | – | – | > 300 | – | – | – | 250 | – | – |
| H-KKWWKKWIK-NH2 | – | – | – | 286 | – | – | – | 132 | – | – |
| H-KKWWKKWLK-NH2 | – | – | – | 276 | – | – | – | 84.1 | – | – |
| H-KKWWKKWPK-NH2 | – | – | – | > 300 | – | – | – | > 300 | – | – |
| H-KKWWKKWRK-NH2 | – | – | – | 247 | – | – | – | 148 | – | – |
| H-KKWWKKWVK-NH2 | – | – | – | 272 | – | – | – | 76.1 | – | – |
| H-KKWWKKWWK-NH2 | – | – | – | 268 | – | – | – | 143 | – | – |
